From publication PMC9211397, “High-Throughput Screening Platform To Identify Inhibitors of Protein Synthesis with Potential for the Treatment of Malaria” (Antimicrobial Agents and Chemotherapy, 2022)
“And” between values parts separate entries of the source, which are not always exact repeats. Equal entries are not always repeated. Where two headings read alike, the source gives them in different places.

Key:
[1] = target: P. falciparum translation (P. falciparum lysate); test: P. falciparum in vitro translation (PfIVT) assay, lysate-based, luciferase reporter; type: biochemical, Plasmodium falciparum; details: for IC50: 8-point, weighted mean ± SD of two technical replicates, read-out: IC50 value (μM) PfIVT; for PfIVT inhibition at 30 μM (%): single-point screen
Text: (§1) Our P. falciparum in vitro translation (PfIVT) assay is built upon previously established assays ([14], [17]) and is summarized in Fig. 1A. In this assay, successful reconstitution of Plasmodium protein translation is reported via synthesis of a luciferase reporter. For PfIVT, two independent untranslated regions (UTRs), previously shown to promote strong levels of translation ([17]), were introduced upstream and downstream of the luciferase. The 5′ UTR from P. falciparum histidine-rich protein 3 (PfHrp3) ([18]) was introduced upstream of the reporter gene, and the 3′ UTR from P. falciparum histidine-rich protein 2 (PfHrp2) gene ([19]) was introduced downstream. For the reporter construct to support our complementary human IVT assay (HsIVT), the 5′ UTR was replaced with an internal ribosome entry site (IRES) from encephalomyocarditis virus (EMCV) ([20]) and the 3′ UTR was replaced with a poly(A) tail ([21]). […] Finally, a 30-bp poly(A) tail, present within the vector and downstream of the luciferase gene, was inserted to enhance mRNA stability ([21]).
(§2) Translationally active P. falciparum or human embryonic kidney (HEK) 293F lysates were supplemented with accessory, helper, amino acid, and energy regeneration solutions (see Materials and Methods for details). In vitro translation reactions were initiated by the addition of purified mRNA to each reaction well. Using this basic assay format, a number of parameters were assessed and optimized, namely, assay temperature, time, mRNA concentration, and reaction volume (summarized in Fig. S2 in the supplemental material). In addition, we compared the luminescence signal of the CBG firefly luciferase with CBG99, derived from the click beetle […] ([18]).
3D7 parasites were synchronized following two rounds of treatment with D-sorbitol (5%), as previously described ([40]). The hematocrit was reduced from 5% (for standard culture) to 1.5 to 2% and cultures were transferred into HYPERflasks (Corning). Fresh medium was added once or twice daily. […] Harvested red blood cells (infected) were lysed by incubation in 0.1% (wt/vol) saponin on ice for 10 min with gentle agitation. Free parasites were harvested by centrifugation (2,800 × g, 10 min, 4°C) and washed 3 times in wash buffer (WB; 100 mM potassium acetate, 2.5 mM magnesium acetate, 45 mM HEPES [pH 7.4], 250 mM sucrose, 2 mM dithiothreitol, and 15 μM leupeptin) to remove lysed red blood cell debris. The resulting pellet was resuspended in 1 volume of WB supplemented with cOmplete EDTA-free protease inhibitor cocktail (Roche; 1 tablet/20 mL) and human RNase A inhibitor (Sigma; 5 U/mL). Parasite lysis was achieved by nitrogen cavitation using a prechilled 45-mL Parr cell disruption vessel (1,500 lb/in^2, 60 min, 4°C). To clarify the lysate, it was centrifuged (10,000 × g, 15 min, 4°C), and the supernatant was collected, transferred into fresh tubes, and centrifuged (30,000 × g, 15 min, 4°C). As a quality assurance step for each lysate, the RNA content of the resulting supernatant was determined using a NanoDrop spectrophotometer (Shimadzu). Supernatants with RNA levels of >250 ng/μL were aliquoted (100 μL), flash frozen in liquid nitrogen, and stored at −80°C.

CBG99 luciferase = CBG99 luciferase (Pyrophorus plagiophthalamus, UniProt Q7M4K1); test: Luciferase counterscreen (false-positive counterscreen); type: biochemical, click beetle
Protocol: Hits identified in our primary assay screen were assessed for their potential to interfere with the cbg99 luciferase reporter. For this counterscreen, the master mix containing all the components required for translation (as described above) was incubated for 210 min at 32°C, resulting in the in vitro translation of cbg99 luciferase. The produced luciferase was then incubated with test compounds for 5 min prior to the addition of luciferase reaction buffer. […] Hits from the primary screen were assessed as luciferase inhibitors in 8-point dose-dependent assays ranging from 30 μM to 13.7 nM (1:3 dilutions). Levels of luciferase inhibition were determined relative to the positive control.

[2] = target: human translation (HEK 293F lysate); test: Human in vitro translation (HsIVT) assay, HEK 293F lysate, luciferase reporter; type: biochemical; details: weighted mean ± SD of two technical replicates, read-out: IC50 value (μM) HsIVT
Text: as §1, §2
FreeStyle human embryonic kidney (HEK) 293F cells (Thermo Fisher Scientific) were grown in 500-mL polycarbonate Erlenmeyer vented flasks (Corning) containing FreeStyle 293 expression medium (Life Technologies) upon reaching a density of approximately 2 × 10^6. Cells were then centrifuged at 1,000 × g for 10 min at 4°C, the medium was discarded, and the resulting pellet was washed once in buffer II containing 20 U of human placental RNase inhibitor (Sigma-Aldrich) and cOmplete EDTA-free inhibitor cocktail (Roche) before being centrifuged at 2,800 × g for 10 min. Clarified HEK cell lysate was obtained in the same way as described for P. falciparum lysate.
PfIVT and HsIVT reactions (5 μL final volume) were performed in 384-well plates (Corning) containing 50% lysate from cells (either P. falciparum or HEK 293F), 10% amino acid solution (final concentration of 400 μM for each amino acid in 60 mM KOH; biotechrabbit), 10% energy recovery solution (final assay concentrations of 40 mM HEPES [pH 7.4], 1.5 mM ATP, 0.15 mM GTP, […] creatine phosphate, and 40 U/mL creatine phosphokinase), 10% helper solution (final assay concentrations of 200 μM cystine, 2% polyethylene glycol 3000 [PEG 3000], 1 mM spermidine, 0.5 mM folinic acid, and 15 μM leupeptin), 10% supplemental salt solution (22.5 mM HEPES [pH 7.4], 50 mM potassium acetate, 1 mM magnesium acetate, 1 mM DTT, 1 U/mL human placental RNase inhibitor, 0.1 mM leupeptin), and 10% cbg99 luciferase mRNA (3,000 ng/mL). A master mix solution containing all components was prepared on ice prior to assays, and 5 μL was dispensed into wells using an automated Integra VIAFLO 16-channel 12.5-μL pipette.

[3] = Pandemic Box hits; weighted mean ± SD of two technical replicates; read-out: IC50 value (μM) Counterscreen
[4] = Pathogen Box hits; weighted mean ± SD of two technical replicates; read-out: IC50 value (μM) Counterscreen

CBG99 luciferase, sequence (Q7M4K1 entry or part of it): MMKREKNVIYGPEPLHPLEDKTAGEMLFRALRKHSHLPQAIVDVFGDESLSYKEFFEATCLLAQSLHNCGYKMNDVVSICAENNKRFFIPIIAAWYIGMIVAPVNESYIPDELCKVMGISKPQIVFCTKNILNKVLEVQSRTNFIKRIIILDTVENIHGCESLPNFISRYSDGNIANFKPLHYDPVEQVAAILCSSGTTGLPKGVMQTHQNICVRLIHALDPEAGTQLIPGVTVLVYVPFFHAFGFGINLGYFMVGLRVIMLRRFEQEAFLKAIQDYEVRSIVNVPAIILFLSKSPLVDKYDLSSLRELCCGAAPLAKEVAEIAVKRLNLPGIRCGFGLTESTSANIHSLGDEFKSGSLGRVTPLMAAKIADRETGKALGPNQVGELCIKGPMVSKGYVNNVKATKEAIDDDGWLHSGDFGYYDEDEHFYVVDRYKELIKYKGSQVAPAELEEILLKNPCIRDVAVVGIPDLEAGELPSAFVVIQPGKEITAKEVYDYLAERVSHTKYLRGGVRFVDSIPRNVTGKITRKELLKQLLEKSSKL

SMILES	IC50 ([1]; Pandemic Box hits)	PfIVT inhibition at 30 μM (%) ([1]; Pandemic Box)	IC50 (CBG99 luciferase; [3]) [µM]	IC50 ([2]; Pandemic Box hits) [µM]	IC50 ([1]; Pathogen Box hits) [µM]	PfIVT inhibition at 30 μM (%) ([1]; Pathogen Box)	IC50 (CBG99 luciferase; [4]) [µM]	IC50 ([2]; Pathogen Box hits) [µM]	activity against PfIVT at 100 μM [1]	IC50 (CBG99 luciferase; read-out: IC50 value (μM) Counterscreen; Pandemic Box hits; weighted mean ± SD of two technical replicates) [µM]	IC50 (CBG99 luciferase; read-out: IC50 value (μM) Counterscreen; Pathogen Box hits; weighted mean ± SD of two technical replicates) [µM]
CCOc1ccc(C(=O)NCCc2ccccc2)cc1 [MMV124656]	14 ± 0.9 µM	72.6	3.8 ± 0.08	17 ± 0.16							
COc1cc(C2=NCCN2)ccc1-n1cc(-c2cccc(C3=NCCN3)c2)nn1 [MMV688474]					16 ± 0.9	78.4	> 30	14 ± 0.07			
COc1ccc(C(=N)N)cc1-c1cn(-c2ccc(C(=N)N)cc2)nn1 [MMV675998]					13 ± 0.9	68.9	> 30	18 ± 0.13			
NC(=O)c1cc(Br)ccc1OCCOc1ccccc1 [MMV687243]					2.2 ± 0.08	82.5	0.9 ± 0.09	13 ± 0.2			
Cn1cc(NC(=O)c2cc(NC(=O)c3ccc(/C=C/c4cnc5ccccc5c4)cc3)cn2C)cc1C(=O)NCCN1CCOCC1 [MMV1634391]	17 ± 0.6 µM	52.4	> 30	1.1 ± 0.01							
O=C(Nc1nc(-c2ccccn2)cs1)c1cncn1-c1ccccc1 [MMV676512]					> 30	54.2	> 30	22 ± 0.46			
NC[C@H]1O[C@H](O[C@H]2[C@H](O)[C@@H](O[C@H]3O[C@H](CO)[C@@H](O)[C@H](N)[C@H]3O)[C@H](N)C[C@@H]2N)[C@H](N)C[C@@H]1O [MMV002459]	29 µM and > 30 µM	87.3	> 30	22 ± 0.3							
COc1cc(C2=NCCN2)cc2cc(-c3ccc(C4=NCCN4)cc3)oc12 [MMV688362]					2.8 ± 0.08	93.5	> 30	5.6 ± 0.04			
COc1ccc2nc(C)cc(OCC(=O)Nc3ccccc3OC)c2c1 [MMV687188]						64.9	> 30	> 30			
COc1ccc(C2=NCCN2)cc1-c1cn(-c2cccc(C3=NCCN3)c2)nn1 [MMV688547]					1.8 ± 0.07	96.7	> 30	2.7 ± 0.02			
CCC[C@@H]1C[C@@H](C(=O)N[C@@H]([C@H]2O[C@H](SC)[C@H](O)[C@@H](O)[C@H]2O)[C@H](C)Cl)N(C)C1 [clindamycin, reference compound]									not active		
CC(C)Nc1ncnc2c1cnn2-c1ccc(Cl)cc1 [MMV108465]	17 ± 0.8 µM	62.6	7.6 ± 0.5	23 ± 0.11							
N=C(N)Nc1ccc(-c2ccc(-c3ccc(N=C(N)N)c(Cl)c3)o2)cc1Cl [MMV688271]					18 ± 0.9	65.7	> 30	13 ± 0.16			
Clc1cccc(-c2nnc(-c3ccccc3)o2)c1 [MMV141011]	> 30 µM	51.8	10 ± 0.8	> 30							
Cc1oncc1C(=O)Nc1ccc(C(F)(F)F)cc1 [MMV003291]	2 ± 0.07 µM	52.9	0.5 ± 0.08	> 30							
C(=C\c1nc2ccccc2[nH]1)/c1ccc2c(c1)OCO2 [MMV1582495]	0.6 ± 0.07 µM	89.9	1.7 ± 0.08	3.1 ± 0.04							
Cc1ccc(C(=O)Nc2ccc(S(=O)(=O)O)c3cc(S(=O)(=O)O)cc(S(=O)(=O)O)c23)cc1NC(=O)c1cccc(NC(=O)Nc2cccc(C(=O)Nc3cc(C(=O)Nc4ccc(S(=O)(=O)O)c5cc(S(=O)(=O)O)cc(S(=O)(=O)O)c45)ccc3C)c2)c1 [MMV637953]					3.1 ± 0.07	78.7	> 30	> 30			
CC(=O)Oc1ccccc1C(=O)Nc1ncc([N+](=O)[O-])s1 [MMV688991, nitazoxanide, reference compound]	0.02 ± 0.007 µM	98.3		0.04 ± 0.0003	0.02 ± 0.008	97.0		0.04 ± 0.0003		0.04 ± 0.008	0.02 ± 0.008
O=C(O)c1cc(-c2ccc(Br)cc2)nc2ccc(Cl)cc12 [MMV247764]	14 ± 0.7 µM	63.2	3.2 ± 0.06	23 ± 0.2							
C[C@H]1c2cccc(O)c2C(=O)C2=C(O)[C@]3(O)C(=O)C(C(N)=O)=C(O)[C@@H](N(C)C)[C@@H]3[C@@H](O)[C@@H]21 [doxycycline, reference compound]									not active		
Cc1c[nH]c(CCNC(=O)c2cc(-c3ccc(Cl)cc3)cs2)n1 [MMV676350]					16 ± 0.8	65.1	> 30	6.7 ± 0.13			
